{"source": "patent US4432987A", "about": "“Crystalline benzenesulfonate salts of sultamicillin” (priority 1982, dated 1984)", "key": {"[1]": {"experiment": "Storage of anhydrous salt under humidity / atmospheric moisture", "format": "physicochemical", "excerpt": "When 4-chlorobenzenesulfonic acid is used in the above procedure the corresponding anhydrous 4-chlorobenzenesulfonic acid addition salt is obtained."}, "[2]": {"experiment": "Stability on storage at 50° C. for three weeks, retained potency (HPLC)", "format": "physicochemical", "details": "30240 min", "procedure": "(§1) In the solubility and stability studies above samples of the materials were assayed by HPLC using a Chromegabond C-8* column (4.6 mm internal diameter×30 cm.). The mobile phase consisted of 30% by weight acetonitrile in pH 3 phosphate buffer (0.1 M). Flow rate, 1.6 ml/minute. Detection was by UV at 230 nm."}, "[3]": {"experiment": "Apparent solubility of sultamicillin salts in water and simulated gastric juice (without pepsin, pH 1.2), HPLC", "format": "physicochemical", "details": "for Final pH, Simulated Gastric Juice: final pH of the solubility test in simulated gastric juice; for Final pH, Water: final pH of the solubility test in water; for Apparent Solubility, Simulated Gastric Juice: simulated gastric juice without pepsin, pH 1.2, 30 minutes agitation; for Apparent Solubility, Simulated Gastric Juice / Apparent Solubility, Water: 30 min; for Apparent Solubility, Water: 30 minutes vigorous agitation", "procedure": "The solubility of the salts in water and simulated gastric juice without pepsin (pH 1.2) were compared. Equilibrium solubility was not determined since the compounds are not entirely stable in aqueous systems for the extended time required to reach equilibrium. Therefore, the apparent solubility was determined by vigorous agitation for 30 minutes with the solvent. The resulting mixture was then filtered and the amount of compound in solution determined by high pressure liquid chromatography (HPLC).\nas §1"}, "[4]": {"experiment": "Stability and solubility of sultamicillin forms", "format": "physicochemical", "details": "for stability (in words): solid state / handling"}, "[5]": {"test_system": "Sarcina lutea (ATCCC 9341)", "details": "no beta-lactamase; sulbactam up to 100 μg./ml."}, "[6]": {"test_system": "Pasteurella histolytica (59B010)", "details": "beta-lactamase mediated resistance; high concentrations alone or combined"}}, "note": "Structures can show the parent of a compound that is named as a salt."}
{"smiles": "CC1(C)S[C@@H]2[C@H](NC(=O)[C@H](N)c3ccccc3)C(=O)N2[C@H]1C(=O)OCOC(=O)[C@@H]1N2C(=O)C[C@H]2S(=O)(=O)C1(C)C", "values": [{"measurement": "dihydrate formation upon exposure to atmospheric moisture", "setting": "[1]; 48 hours", "result": "forms a dihydrate"}]}
{"smiles": "CC1(C)S[C@@H]2[C@H](NC(=O)[C@H](N)c3ccccc3)C(=O)N2[C@H]1C(=O)OCOC(=O)[C@@H]1N2C(=O)C[C@H]2S(=O)(=O)C1(C)C", "note": "[anhydrous salt, Anhydrous 1,1-Dioxopenicillanoyloxymethyl 6-[D-(2-amino-2-phenylacetamido)]penicillanate benzenesulfonate]", "values": [{"measurement": "water content of dihydrate formed upon storage", "setting": "[1]; 50% relative humidity, 30 hours, by weight", "result": 4.5, "unit": "%"}]}
{"smiles": "CC1(C)S[C@@H]2[C@H](NC(=O)[C@H](N)c3ccccc3)C(=O)N2[C@H]1C(=O)OCOC(=O)[C@@H]1N2C(=O)C[C@H]2S(=O)(=O)C1(C)C", "note": "[4-Chlorobenzenesulfonate.2H2 O, 1,1-Dioxopenicillanoyloxymethyl 6-[D-(2-amino-2-phenylacetamido)]penicillanate 4-chlorobenzenesulfonate dihydrate]", "values": [{"measurement": "potency retained upon storage", "setting": "[2]; listed as 4-chlorobenzenesulfonae.2H2 O, dihydrate", "result": 100, "unit": "%"}, {"measurement": "Final pH, Simulated Gastric Juice", "setting": "[3]; dihydrate", "result": 1.1}, {"measurement": "Final pH, Water", "setting": "[3]; dihydrate", "result": 3.8}, {"measurement": "Apparent Solubility, Simulated Gastric Juice", "setting": "[3]; dihydrate", "result": 6300, "unit": "µg/mL"}, {"measurement": "Apparent Solubility, Water", "setting": "[3]; dihydrate", "result": 3300, "unit": "µg/mL"}]}
{"smiles": "CC1(C)S[C@@H]2[C@H](NC(=O)[C@H](N)c3ccccc3)C(=O)N2[C@H]1C(=O)OCOC(=O)[C@@H]1N2C(=O)C[C@H]2S(=O)(=O)C1(C)C", "note": "[Sultamicillin free base, 1,1-dioxopenicillanoyloxymethyl 6-[D-(2-amino-2-phenylacetamido)]penicillanate]", "values": [{"measurement": "stability (in words)", "setting": "[4]", "result": "poor handling characteristics and inadequate stability"}]}
{"smiles": "CC1(C)[C@H](C(=O)O)N2C(=O)C[C@H]2S1(=O)=O", "note": "[sulbactam, penicillanic acid 1,1-dioxide]", "values": [{"measurement": "susceptibility / synergy, Sarcina lutea", "setting": "[5]", "result": "insensitive to sulbactam at concentrations as high as 100 μg./ml."}, {"measurement": "susceptibility / synergy, Pasteurella histolytica", "setting": "[6]", "result": "insensitivity"}]}
{"smiles": "CC1(C)S[C@@H]2[C@H](NC(=O)[C@H](N)c3ccccc3)C(=O)N2[C@H]1C(=O)OCOC(=O)[C@@H]1N2C(=O)C[C@H]2S(=O)(=O)C1(C)C", "note": "[Hydrochloride, 1,1-Dioxopenicillanoyloxymethyl 6-[D-(2-amino-2-phenylacetamido)]penicillanate hydrochloride]", "values": [{"measurement": "potency retained upon storage", "setting": "[2]; listed as hydrochloride salt, hydrochloride", "result": 67, "unit": "%"}, {"measurement": "solubility in water / aqueous systems (in words)", "setting": "[4]", "result": "highly soluble in water"}, {"measurement": "stability in water (in words)", "setting": "[4]; aqueous", "result": "subject to hydrolytic decomposition"}, {"measurement": "stability (in words)", "setting": "[4]; hydrochloride", "result": "poor solid state stability"}, {"measurement": "Final pH, Simulated Gastric Juice", "setting": "[3]; hydrochloride", "result": 1.12}, {"measurement": "Final pH, Water", "setting": "[3]; hydrochloride", "result": 2.0}, {"measurement": "Apparent Solubility, Simulated Gastric Juice", "setting": "[3]; hydrochloride", "result": "> 79000", "unit": "µg/mL"}, {"measurement": "Apparent Solubility, Water", "setting": "[3]; hydrochloride", "result": "> 94000", "unit": "µg/mL"}]}
{"smiles": "CC1(C)S[C@@H]2[C@H](NC(=O)[C@H](N)c3ccccc3)C(=O)N2[C@H]1C(=O)OCOC(=O)[C@@H]1N2C(=O)C[C@H]2S(=O)(=O)C1(C)C", "note": "[Benzenesulfonate.2H2 O, 1,1-Dioxopenicillanoyloxymethyl 6-[D-(2-amino-2-phenylacetamido)]penicillanate benzenesulfonate dihydrate]", "values": [{"measurement": "potency retained upon storage", "setting": "[2]; benzenesulfonate dihydrate", "result": 97, "unit": "%"}, {"measurement": "Final pH, Simulated Gastric Juice", "setting": "[3]; benzenesulfonate dihydrate", "result": 2.0}, {"measurement": "Final pH, Water", "setting": "[3]; benzenesulfonate dihydrate", "result": 3.4}, {"measurement": "Apparent Solubility, Simulated Gastric Juice", "setting": "[3]; benzenesulfonate dihydrate", "result": 1800, "unit": "µg/mL"}, {"measurement": "Apparent Solubility, Water", "setting": "[3]; benzenesulfonate dihydrate", "result": 2150, "unit": "µg/mL"}]}
{"smiles": "CC1(C)S[C@@H]2[C@H](NC(=O)[C@H](N)c3ccccc3)C(=O)N2[C@H]1C(=O)O", "note": "[ampicillin]", "values": [{"measurement": "susceptibility / synergy, Sarcina lutea", "setting": "[5]", "result": "susceptible"}, {"measurement": "susceptibility / synergy, Pasteurella histolytica", "setting": "[6]", "result": "insensitivity"}]}
